Measured values as given in paper PMC10726354, “Design, Synthesis, and Biological Evaluation of Small-Molecule-Based Radioligands with Improved Pharmacokinetic Properties for Imaging of Programmed Death Ligand 1” (Journal of Medicinal Chemistry, 2023).

Target: T1, PD-L1 (Homo sapiens, UniProt Q9NZQ7)
T1 construct: expressed in transfected cells; host or cells: PC3 cells (human prostate carcinoma), stably transduced
Experiment: Saturation binding assay on live PC3 PD-L1 overexpressing cells
Description: For assessing the binding affinity of compounds [^64Cu]Cu-1–6, PC3 cells transduced with PD-L1 were used. Dissociation constants in equilibrium (KD) and maximum number of binding sites (Bmax) were determined in a saturation binding assay. The assays were performed with the addition of 2.5% bovine serum albumin (BSA) in the medium to prevent unspecific binding to plastic wells, as reported previously for our first radioligands.[1]
For saturation binding, cells were trypsinized (0.05% Trypsin–EDTA, Gibco, USA), counted, and diluted to ∼160,000 cells/mL. 0.25 mL of the cell solution was then added to each well of a 48-well plate (Falcon Multiwell #353078) and grown for at least 2 days.
To determine the affinity (KD) and the number of binding sites (Bmax) of the herein described PD-L1 small-molecule ligands, saturation binding was performed in at least three independent experiments, as described before.[45] Cells were brought to room temperature followed by cooling on ice (each 15 min). The medium was removed and replaced with 200 μL assay buffer [PBS + 2.5% (w/v) BSA] for total binding (TB) conditions or assay buffer containing 300 μM BMS-1166 (in DMSO, resulting in 0.03% v/v) for the assessment NSB. After 15 min preincubation, 200 μL of each of the eight serial 1:1 dilutions (500 to 3.91 nM) of the respective radioligand was added (in triplicate). Cells were then incubated for 90 min at 4 °C, washed (3 × 1 min), and lysed in 500 μL of 0.1 M NaOH + 1% SDS. Radioactivity of the lysate was measured and decay corrected to a reference time (end of radiolabeling). An additional plate was subjected to the same conditions (preincubation, incubation, and washing) using PBS without BSA for each experiment, and the protein content of these lysates was determined by BCA assay. From CPM measurements, final values (pmol/mg protein) were calculated using the mean protein content and molar activity.
Processed data were then subjected to nonlinear iterative curve fitting (GraphPad Prism 9) to yield Bmax (in pmol/mg protein) and KD (in nM).

T1 sequence (Q9NZQ7 19-290): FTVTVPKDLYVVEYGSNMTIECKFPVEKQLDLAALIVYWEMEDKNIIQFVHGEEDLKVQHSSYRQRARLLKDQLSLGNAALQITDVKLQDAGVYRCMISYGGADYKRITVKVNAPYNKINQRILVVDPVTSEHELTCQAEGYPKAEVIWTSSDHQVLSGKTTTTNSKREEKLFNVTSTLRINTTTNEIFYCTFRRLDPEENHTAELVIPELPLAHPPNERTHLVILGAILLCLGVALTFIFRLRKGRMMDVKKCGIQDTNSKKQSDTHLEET

In the case of `Cc1c(COc2cc(OCc3cccc(C#N)c3)c(CN3C[C@H](O)C[C@@H]3C(=O)O)cc2Cl)cccc1-c1ccc2c(c1)OCCO2` [BMS-1166, reference compound], the “binding blocked in the saturation assay” value is reported as roughly 80%.
